# In patent US9579364B2, “Methods for treating benign prostatic hypertrophy (BPH)” (New York University, priority 2002, dated 2017):
# Marks after values point to notes of the source that are not given here. Bridge positions count the residues as written; N and C are the ends. Square brackets hold non-standard residues; d marks the D form. Peptide text beside a SMILES is read from it. dDab = NCC[C@@H](N)C(=O)O
# Tests used:
# [1] = cited from earlier work
# [2] = test system: all five somatostatin receptor subtypes; conditions: cited from earlier work
# [3] = test system: prostate of intact 28 day old male mice; experiment: PQ401 or SS14 treatment of intact 28 day old male mice: prostate; type: in vivo
# Method: To examine further the effect of various compounds on glandular and fibromuscular development of the prostate, somatostatin-14 (SS14, a native somatostatin) and an exemplary small molecule IGF-I receptor inhibitor PQ401 were assessed in a variety of animal models.
# In a first experimental approach, the effect of treatment of intact 28 day old male mice with vehicle or PQ401 (a small molecule IGF-I receptor specific inhibitor) or somatostatin-14 (SS14; a native somatostatin) was evaluated. PQ401 and SS14 inhibit IGF-I action. For these experiments, N=5 mice per group. The results of these experiments are presented below in Tables 7-10: […]
# [4] = test system: IGF-IR signaling; conditions: chemical library screen; cited from earlier work
# [5] = test system: prostate of castrated IGF-I^(−/−) male mice; experiment: Prostate glandular tree development, castrated IGF-I(-/-) male mice treated 28 days; type: in vivo; conditions: 28 days treatment
# Method: These include transgenic mice overexpressing a GH antagonist (that binds to and inactivates GH receptors making the animals functionally deficient in GH), growth hormone releasing factor receptor (GHRH-R^−/−) knockout mice (Lit/Lit), and Ames (df/df) mice (Prop 1 Deficiency). Deficient prostate development in GH inhibitor overexpression animals was previously reported (see Ruan et al, Endocrinology 140:1984-1989, 1999). Analysis of development was determined by dissecting away the periprostatic fat and teasing the glandular structures from the connective tissue in a solution containing collagenase so that the entire glandular tree could be photographed for later structural analysis. Much the same as in the mice overexpressing the mutant growth hormone, the other GH deficient mice had significant impairment of prostate development (p<0.0002) including a reduction in the number of terminal duct tips (TDTs), the area of the prostate gland, the number of quaternary branches and the number of branch points (TABLE 3). Any differences in these GH deficient mice may in part be due to the fact that the different strains were not analyzed at exactly the same age (Lit/Lit 50 days old, Ames 47 days old and bGH transgenic 44 days of age). The n was also different which may have led to greater significance in the Lit/Lit mice.
# To clearly differentiate between the effects of IGF-I and T on development of the prostate gland, hormone replacement experiments were conducted on IGF-I^(−/−) male mice that had been castrated. In addition to evaluating the effect of IGF-I and T on gland structure development described above, we also evaluated the relative effects of these hormones on development of the stromal compartment of the prostate and also on histology of the glandular compartment. This was accomplished by sectioning and staining the prostate to highlight aspects of development.
# Castrated IGF-I^(−/−) male mice were treated with T (administered by silastic capsules embedded on the backs of animals, subcutaneously). Des (1-3) IGF-I (40 μg/pump) was also implanted subcutaneously.
# [6] = test system: probasin in epithelial cells of the prostate; experiment: Probasin immunostaining of prostate sections (FIG. 6); type: in vivo, mice; conditions: FIG. 6(i-l)
# Description: FIG. 6 depicts the effect of IGF-1 and/or T on histological appearance of prostate glands during development. Sections are shown through prostate glands from control animals (a, e, i) and animals treated with T alone (b, f, j), IGF-I alone (c, g, k), and IGF-I plus T (d, h, i). […] (i-1) Probasin immunostaining, brown color in the epithelial cells of the prostate. Magnification ×400.
# The relative effects of IGF-I and T on prostate development were also studied in histological sections of whole prostate. This allowed determination of such effects on glandular microstructure and the stromal compartment of the prostate.
# FIG. 6 depicts sections through prostate glands from control animals (FIG. 6(a, e, i)), animals treated with T alone (FIG. 6(b, f, j)), IGF-I alone (FIG. 6(c, g, k)), and IGF-I plus T (FIG. 6(d, h, i)).
# [7] = test system: prostate of IGF-I^(−/−) null male mice; experiment: Restoration of prostate development in IGF-I(-/-) null male mice; type: in vivo
# Description: That IGF-I was also found to be essential for full prostate development was shown in a series of experiments employing IGF-I^(−/−) null male mice.
# [8] = test system: prostate of castrated IGF-I^(−/−) null male mice; experiment: Morphometry of histological prostate sections, castrated IGF-I(-/-) null male mice treated 7 days; type: in vivo
# Method: Groups of castrated IGF-I^(−/−) null male mice were treated with either vehicle, testosterone in silastic capsules, des(1-3) IGF-I by an infusion through an Alzet pump containing 20 μg per pump, or the combination of testosterone and IGF-I for a period of 7 days.
# In order to determine which specific structure was affected by which hormone, entire urogenital complexes were embedded in paraffin blocks, including the prostate glands, coagulating glands, seminal vesicles, urethra, urinary bladder attached to parts of the ureter, vas deferens, and ampullary glands. These were carefully sectioned such that the areas of prostate development could be analyzed.
# The prostates were then removed, fixed and examined histologically. Morphometric analysis was carried on 30 cross sections of the prostate taken from five different serial sections. Changes in the area of the lumen, epithelial layer and fibromuscular layer were determined. These counts were performed using a Provis ×70 microscope (Olympus) attached to an Olympus DP10 digital camera. Images were taken using a 20× apochromate objective and were captured digitally at a resolution of 386 pixels. Data were tested for statistical significance using the SPSS statistical computer program (SPSS, Inc., Chicago, Ill.). Since assumptions for a parametric test were not valid (Kolmogorov-Sminov p<0.05), all data were evaluated by Kruskall-Wallis analysis of variance and the Mann-Whitney U test as a multiple comparison method.
# [9] = test system: IGF-I receptor; experiment: IGF-I receptor immunopositive cells in prostate elements; type: in vivo
# [10] = castrated IGF-I knockout male mice, 7 days treatment
# [11] = castrated at 56 days, hormones for 7 days (Table 5)
structure (smiles),measurement,setting,value
C[C@@H](O)[C@@H]1NC(=O)[C@H](CCCCN)NC(=O)[C@@H](Cc2c[nH]c3ccccc23)NC(=O)[C@H](Cc2ccccc2)NC(=O)[C@H](Cc2ccccc2)NC(=O)[C@H](CCCNC(=N)N)NC(=O)[C@H](NC(=O)[C@@H](N)Cc2ccc(O)cc2)CCNC(=O)[C@H](Cc2ccccc2)NC1=O [KE108] (H-Y[dDab]RFF[dW]KTF; lactam 2-C),stability in human serum,[1],stable for several hours
same,affinity for all five somatostatin receptor subtypes,[2],extremely high affinity
COc1ccc(Cl)cc1NC(=O)Nc1cc(C)nc2ccccc12 [PQ401],area of the Longitudinal muscle,"[3]; 28 day old male mice, controls 0.939",0.868 mm^2
same,total area of the Circular muscle,"[3]; 28 day old male mice, controls 1.322",0.789 mm^2
same,% Reduction of prostate weight,"[3]; intact 28 day old male mice, vs 28 day control",31%
same,prostate weight,"[3]; intact 28 day old male mice, control 26.8 ± 1.0, p < 0.0001",18.4 ± 0.5 mg
same,inhibition of IGF-IR signaling,[4],potent inhibitor
"C[C@]12CC[C@H]3[C@@H](CCC4=CC(=O)CC[C@@]43C)[C@@H]1CC[C@@H]2O [TESTOSTERONE, testosterone]","4°- branching, ventral prostate",[5],8.0 ± 0.6 ^a
same,"Area, dorsal prostate",[5],0.15 ± 0.01 ^a cm^2
same,"Area, ventral prostate",[5],0.16 ± 0.01 ^a cm^2
same,"Branch Points, ventral prostate",[5],12.0 ± 1.2 ^
same,"Terminal Duct Tips, dorsal prostate",[5],17.0 ± 1.2 ^a
same,"Terminal Duct Tips, ventral prostate",[5],16.3 ± 1.2 ^
same,"Width of TDTs, dorsal prostate",[5],0.227 ± 0.003 ^b mm
same,"Width of TDTs, ventral prostate",[5],0.236 ± 0.003 ^b mm
same,probasin immunostaining in the epithelial cells of the prostate,[6],scattered number of probasin immunopositive epithelial cells
same,restoring impaired prostate development,[7],partially but significantly restored
same,Area of prostatic component (mean values): Eptithelium,[8]; [10],"Eptithelium = 84,551.64 μm^2"
same,Area of prostatic component (mean values): Lumen,[8]; [10],"Lumen = 369,495.45 μm^2"
same,Area of prostatic component (mean values): Stroma (connective-muscle),[8]; [10],"Stroma (connective-muscle) = 89,797.254 μm^2"
same,Area of prostatic components (mean values): Total,[8]; [10],"Total = 543,844.34 μm^2"
same,Percentage of area: Eptithelium,[8]; [10],15%
same,Percentage of area: Lumen,[8]; [10],69%
same,Percentage of area: Stroma (connective-muscle),[8]; [10],16%
same,Mean area of prostatic component: Epithelium,[8]; [11],84 × 10^3 μm^2
same,Mean area of prostatic component: Fibromuscular tissue,[8]; [11],89 × 10^3 μm^2
same,Mean area of prostatic component: Lumen,[8]; [11],369 × 10^3 μm^2
same,Mean section size,[8]; [11],543 × 10^3a μm^2
same,percentage occupied: Epithelium,[8]; [11],(15%)^a
same,percentage occupied: Fibromuscular tissue,[8]; [11],(16%)^b
same,percentage occupied: Lumen,[8]; [11],(69%)^a
same,"% IGF-I receptor immunopositive cells, epithelium",[9]; prostate epithelium,0%
same,"% IGF-I receptor immunopositive cells, fibromuscular",[9]; prostate fibromuscular elements,95 ± 0.4%
